From paper PMC4040332 (ChemMedChem, 2013)
≈ marks a conversion by molar mass, not a printed value.

Key:
[1] = system: B. subtilis DB104; experiment: Inhibition of bacterial growth; conditions: Bacillus subtilis, DB104, 24 h, read-out: MIC50 B. subtilis
[2] = system: GR from B. anthracis (RacE1); assay type: biochemical; conditions: RacE1, Figure 1
[3] = system: GR from B. anthracis (RacE2); assay type: biochemical; conditions: RacE2, Figure 1
[4] = target: GR from B. subtilis (Bacillus subtilis, UniProt P94556)
[5] = system: GR from F. tularensis (MurI); assay type: biochemical; conditions: Figure 1

Chain of GR from B. subtilis (P94556 whole entry): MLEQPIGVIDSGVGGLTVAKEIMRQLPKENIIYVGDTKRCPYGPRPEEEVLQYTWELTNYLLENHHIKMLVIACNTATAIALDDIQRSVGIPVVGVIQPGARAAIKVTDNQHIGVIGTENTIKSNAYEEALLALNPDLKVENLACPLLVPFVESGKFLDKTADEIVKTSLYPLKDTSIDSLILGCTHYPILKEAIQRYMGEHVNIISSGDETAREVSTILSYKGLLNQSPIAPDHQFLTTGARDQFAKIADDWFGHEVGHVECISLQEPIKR

O=S(=O)(O)c1nc2ccccc2[nH]1 [Compound 2, 1H-benzimidazole-2-sulfonic acid]
MIC50 [1]: 720 ± 60 µg/mL (≈ 3.63 mM) | potency compared with GR from B. subtilis [2]: equal potency | potency compared with GR from B. subtilis [3]: equal potency | LE (ligand efficiency) ([4]; Ki converted to binding energy, divided by number of non-hydrogen atoms): 0.53 kcal/mol/atom | LiPE (lipophilic efficiency) ([4]; from log(Ki) and logP calculated with MarvinSketch): 5.3 | potency compared with GR from B. subtilis [5]: equal potency
